{
  "source": "patent US10780042B2",
  "about": "“Cosmetic compositions” (Symrise AG, priority 2015, dated 2020)",
  "key": {"cyclooxygenase-1": {"target": "cyclooxygenase-1 (Homo sapiens, UniProt P23219)", "sequence (P23219 24-599, species assumed)": "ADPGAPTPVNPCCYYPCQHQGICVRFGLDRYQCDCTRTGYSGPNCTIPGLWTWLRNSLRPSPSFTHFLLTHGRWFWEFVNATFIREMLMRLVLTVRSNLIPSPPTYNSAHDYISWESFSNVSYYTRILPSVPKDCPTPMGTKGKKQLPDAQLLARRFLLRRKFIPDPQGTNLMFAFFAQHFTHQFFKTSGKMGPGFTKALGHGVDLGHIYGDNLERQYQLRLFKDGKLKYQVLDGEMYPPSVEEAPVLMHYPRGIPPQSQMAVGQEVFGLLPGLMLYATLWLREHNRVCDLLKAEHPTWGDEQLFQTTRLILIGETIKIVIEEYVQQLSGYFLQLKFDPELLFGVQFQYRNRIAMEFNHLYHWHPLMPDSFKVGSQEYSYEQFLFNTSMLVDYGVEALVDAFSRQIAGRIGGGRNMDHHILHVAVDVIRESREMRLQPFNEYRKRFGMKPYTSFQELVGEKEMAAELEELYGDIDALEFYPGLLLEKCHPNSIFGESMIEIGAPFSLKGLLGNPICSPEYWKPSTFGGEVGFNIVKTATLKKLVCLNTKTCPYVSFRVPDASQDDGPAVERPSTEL", "conditions": "described in WO 200 230385 A2 (Henkel); cited from earlier work"}, "POMC gene expression": {"test_system": "POMC gene expression", "assay": "Particle induced POMC gene expression in human epidermal keratinocytes (qRT-PCR)", "format": "cell-based", "experimental": "(§1) Gene expression was induced by different model particles. […] The details are set out in Table 1:\n(§2) Gene expression was analyzed via qRT-PCR.\n(§3) Ginger root CO2 extract has been dissolved in DMSO and diluted in medium. […] Gene expression was analyzed via qRT-PCR. […] Table 7 compiles the results for ginger root CO2 extract altered POMC and IL-6 gene expression\n(§4) Purple coneflower pressed juice has been dissolved directly in medium. […] Gene expression was analyzed via qRT-PCR. […] Table 8 compiles the results for purple coneflower pressed juice altered POMC and IL-6 gene expression\n(§5) Gene expression was analyzed via qRT-PCR. […] Table 9 compiles the results for purple coneflower pressed juice altered POMC and IL-6 gene expression"}, "5-lipoxygenase": {"target": "T1, 5-lipoxygenase (Homo sapiens, UniProt P09917)", "T1 sequence (P09917 1-674)": "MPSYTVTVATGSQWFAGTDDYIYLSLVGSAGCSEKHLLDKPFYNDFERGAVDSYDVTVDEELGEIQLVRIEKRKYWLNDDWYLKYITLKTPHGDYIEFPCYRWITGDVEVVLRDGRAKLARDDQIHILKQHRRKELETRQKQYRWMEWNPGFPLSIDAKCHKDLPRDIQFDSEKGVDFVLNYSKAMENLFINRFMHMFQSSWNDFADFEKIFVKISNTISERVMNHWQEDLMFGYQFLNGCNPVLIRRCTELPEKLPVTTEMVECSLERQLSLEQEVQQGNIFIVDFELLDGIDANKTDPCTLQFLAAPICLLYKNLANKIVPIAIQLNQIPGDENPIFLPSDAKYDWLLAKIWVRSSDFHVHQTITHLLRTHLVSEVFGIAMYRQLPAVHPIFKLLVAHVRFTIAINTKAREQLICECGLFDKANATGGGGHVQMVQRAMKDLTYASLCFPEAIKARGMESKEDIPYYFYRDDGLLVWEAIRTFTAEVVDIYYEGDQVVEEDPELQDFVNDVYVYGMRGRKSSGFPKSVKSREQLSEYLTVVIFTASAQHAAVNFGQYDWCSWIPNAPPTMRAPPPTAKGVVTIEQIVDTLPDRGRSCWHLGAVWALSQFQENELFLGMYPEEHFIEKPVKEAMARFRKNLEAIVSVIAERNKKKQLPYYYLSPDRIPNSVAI", "conditions": "described in WO 200 230385 A2 (Henkel); cited from earlier work"}, "AhR": {"target": "T2, AhR (Homo sapiens, UniProt P35869)", "T2 sequence (P35869 11-848)": "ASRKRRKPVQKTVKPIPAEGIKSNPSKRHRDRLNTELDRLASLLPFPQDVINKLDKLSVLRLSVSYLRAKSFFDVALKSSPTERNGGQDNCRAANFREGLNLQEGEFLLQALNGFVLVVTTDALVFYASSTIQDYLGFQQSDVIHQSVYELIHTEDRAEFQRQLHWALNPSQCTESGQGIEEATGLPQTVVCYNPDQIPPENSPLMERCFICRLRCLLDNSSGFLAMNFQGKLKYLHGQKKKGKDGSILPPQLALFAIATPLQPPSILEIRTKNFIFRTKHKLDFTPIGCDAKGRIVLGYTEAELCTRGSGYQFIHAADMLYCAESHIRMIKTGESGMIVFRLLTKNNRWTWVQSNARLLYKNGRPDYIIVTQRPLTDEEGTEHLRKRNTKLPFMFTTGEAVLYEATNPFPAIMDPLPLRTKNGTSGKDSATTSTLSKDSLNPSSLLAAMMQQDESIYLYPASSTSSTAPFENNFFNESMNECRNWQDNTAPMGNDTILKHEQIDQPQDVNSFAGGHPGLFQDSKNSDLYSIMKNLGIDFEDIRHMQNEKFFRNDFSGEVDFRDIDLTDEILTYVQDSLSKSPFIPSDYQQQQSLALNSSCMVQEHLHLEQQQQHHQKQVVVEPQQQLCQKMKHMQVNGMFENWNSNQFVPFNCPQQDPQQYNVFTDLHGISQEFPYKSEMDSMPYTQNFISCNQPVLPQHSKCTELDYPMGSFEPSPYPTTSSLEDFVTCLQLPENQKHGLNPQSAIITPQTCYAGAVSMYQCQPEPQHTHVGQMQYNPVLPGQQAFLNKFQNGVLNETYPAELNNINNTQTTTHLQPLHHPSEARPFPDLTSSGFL", "conditions": "stated as known; cited from earlier work"}, "IL-6 gene expression": {"test_system": "IL-6 gene expression", "assay": "Particle induced IL-6 gene expression in human epidermal keratinocytes (qRT-PCR)", "format": "cell-based", "experimental": "as §1, §2, §3, §4, §5"}, "CYP1A1 gene expression": {"test_system": "CYP1A1 gene expression", "assay": "Particle induced CYP1A1 gene expression in human epidermal keratinocytes (qRT-PCR)", "format": "cell-based", "conditions": "for CYP1A1 Induction mean ± SE: 10 μM BDDI", "experimental": "as §1, §2"}, "MMP1 gene expression": {"test_system": "MMP1 gene expression", "assay": "Particle induced MMP1 gene expression in human epidermal keratinocytes (qRT-PCR)", "format": "cell-based", "experimental": "as §1, §2"}},
  "data": [
    {"compound": "CC1(C)CCC[C@]2(C)C3CC(=O)O[C@]3(C)CC[C@@H]12", "note": "(stereo partly drawn) [Sclareolide, (3aR,5aS,9aS,9bR)-decahydro-3a,6,6,9a-tetramethyl-naphtha[2,1-b]furan-2(1H)-one]", "values": [
      {"measurement": "inhibition of cyclooxygenase-1 activity (in words)", "setting": "cyclooxygenase-1", "result": "inhibition"},
      {"measurement": "inhibition of particle induced POMC gene expression (in words)", "setting": "POMC gene expression", "result": "capable to inhibit"},
      {"measurement": "inhibition of 5-lipoxygenase (in words)", "setting": "5-lipoxygenase", "result": "inhibition"}
    ]},
    {"compound": "C=C[C@](C)(O)CC[C@@H]1[C@@]2(C)CCCC(C)(C)[C@@H]2CC[C@@]1(C)O", "note": "[sclareol, reference compound]", "values": [
      {"measurement": "inhibition of cyclooxygenase-1 activity (in words)", "setting": "cyclooxygenase-1", "result": "inhibition"},
      {"measurement": "inhibition of 5-lipoxygenase (in words)", "setting": "5-lipoxygenase", "result": "inhibition"}
    ]},
    {"compound": "E/Z-2-benzylindene-5,6-dimethoxy-3,3-dimethylindan-1-one [BDDI]", "values": [
      {"measurement": "inhibition of particle induced POMC gene expression (in words)", "setting": "POMC gene expression", "result": "capable to inhibit"},
      {"measurement": "upregulation of the AhR by UVB radiation (in words)", "setting": "AhR", "result": "prevent the upregulation"},
      {"measurement": "inhibition of particle induced IL-6 gene expression (in words)", "setting": "IL-6 gene expression", "result": "capable to inhibit"},
      {"measurement": "CYP1A1 Induction mean ± SE", "setting": "CYP1A1 gene expression; NHEK adult, 6 h, SRM1650 1.5 μg/cm2, untreated = 1, particles alone 2.90", "result": "0.02 ± 0.00"},
      {"measurement": "CYP1A1 Induction mean ± SE", "setting": "CYP1A1 gene expression; NHEK adult, 6 h, SRM2975 1.5 μg/cm2, untreated = 1, particles alone 1.03", "result": "0.20 ± 0.00"},
      {"measurement": "CYP1A1 Induction mean ± SE", "setting": "CYP1A1 gene expression; NHEK adult, 24 h, SRM2975 1.5 μg/cm2, untreated = 1, particles alone 4.90", "result": "0.01 ± 0.00"},
      {"measurement": "inhibition of particle induced Cyp1A1 gene expression (in words)", "setting": "CYP1A1 gene expression; indoor as well as outdoor model particles", "result": "capable to inhibit"},
      {"measurement": "CYP1A1 Induction mean ± SE", "setting": "CYP1A1 gene expression; indoor particles Huber990 1.5 μg/cm2, 6 h, untreated = 1, particles alone 2.70", "result": "0.05 ± 0.00"},
      {"measurement": "CYP1A1 Induction mean ± SE", "setting": "CYP1A1 gene expression; indoor particles Huber990 1.5 μg/cm2, 24 h, untreated = 1, particles alone 2.90", "result": "0.20 ± 0.00"},
      {"measurement": "inhibition of particle induced MMP1 gene expression (in words)", "setting": "MMP1 gene expression", "result": "capable to inhibit"}
    ]}
  ]
}
